Data from US8927587B2, “Chemical compounds” (Pfizer Limited, priority 2012, dated 2015).

These compounds were tested against T1, hNav1.8 (Homo sapiens, UniProt Q9Y5Y9) (assay: hNav1.8 whole-cell patch-clamp electrophysiology (conventional or PatchXpress 7000) in stably transfected HEK cells). Conditions: estimated IC50 calculated from single point % inhibition; HEK cells expressing hNav1.8; 8 sec prepulse to V1/2, 20 msec step to 0 mV; average of replicates; read-out: Nav1.8 EIC50.
T1 construct: host or cells: HEK cells, stably transfected
T1 sequence (Q9Y5Y9 whole entry): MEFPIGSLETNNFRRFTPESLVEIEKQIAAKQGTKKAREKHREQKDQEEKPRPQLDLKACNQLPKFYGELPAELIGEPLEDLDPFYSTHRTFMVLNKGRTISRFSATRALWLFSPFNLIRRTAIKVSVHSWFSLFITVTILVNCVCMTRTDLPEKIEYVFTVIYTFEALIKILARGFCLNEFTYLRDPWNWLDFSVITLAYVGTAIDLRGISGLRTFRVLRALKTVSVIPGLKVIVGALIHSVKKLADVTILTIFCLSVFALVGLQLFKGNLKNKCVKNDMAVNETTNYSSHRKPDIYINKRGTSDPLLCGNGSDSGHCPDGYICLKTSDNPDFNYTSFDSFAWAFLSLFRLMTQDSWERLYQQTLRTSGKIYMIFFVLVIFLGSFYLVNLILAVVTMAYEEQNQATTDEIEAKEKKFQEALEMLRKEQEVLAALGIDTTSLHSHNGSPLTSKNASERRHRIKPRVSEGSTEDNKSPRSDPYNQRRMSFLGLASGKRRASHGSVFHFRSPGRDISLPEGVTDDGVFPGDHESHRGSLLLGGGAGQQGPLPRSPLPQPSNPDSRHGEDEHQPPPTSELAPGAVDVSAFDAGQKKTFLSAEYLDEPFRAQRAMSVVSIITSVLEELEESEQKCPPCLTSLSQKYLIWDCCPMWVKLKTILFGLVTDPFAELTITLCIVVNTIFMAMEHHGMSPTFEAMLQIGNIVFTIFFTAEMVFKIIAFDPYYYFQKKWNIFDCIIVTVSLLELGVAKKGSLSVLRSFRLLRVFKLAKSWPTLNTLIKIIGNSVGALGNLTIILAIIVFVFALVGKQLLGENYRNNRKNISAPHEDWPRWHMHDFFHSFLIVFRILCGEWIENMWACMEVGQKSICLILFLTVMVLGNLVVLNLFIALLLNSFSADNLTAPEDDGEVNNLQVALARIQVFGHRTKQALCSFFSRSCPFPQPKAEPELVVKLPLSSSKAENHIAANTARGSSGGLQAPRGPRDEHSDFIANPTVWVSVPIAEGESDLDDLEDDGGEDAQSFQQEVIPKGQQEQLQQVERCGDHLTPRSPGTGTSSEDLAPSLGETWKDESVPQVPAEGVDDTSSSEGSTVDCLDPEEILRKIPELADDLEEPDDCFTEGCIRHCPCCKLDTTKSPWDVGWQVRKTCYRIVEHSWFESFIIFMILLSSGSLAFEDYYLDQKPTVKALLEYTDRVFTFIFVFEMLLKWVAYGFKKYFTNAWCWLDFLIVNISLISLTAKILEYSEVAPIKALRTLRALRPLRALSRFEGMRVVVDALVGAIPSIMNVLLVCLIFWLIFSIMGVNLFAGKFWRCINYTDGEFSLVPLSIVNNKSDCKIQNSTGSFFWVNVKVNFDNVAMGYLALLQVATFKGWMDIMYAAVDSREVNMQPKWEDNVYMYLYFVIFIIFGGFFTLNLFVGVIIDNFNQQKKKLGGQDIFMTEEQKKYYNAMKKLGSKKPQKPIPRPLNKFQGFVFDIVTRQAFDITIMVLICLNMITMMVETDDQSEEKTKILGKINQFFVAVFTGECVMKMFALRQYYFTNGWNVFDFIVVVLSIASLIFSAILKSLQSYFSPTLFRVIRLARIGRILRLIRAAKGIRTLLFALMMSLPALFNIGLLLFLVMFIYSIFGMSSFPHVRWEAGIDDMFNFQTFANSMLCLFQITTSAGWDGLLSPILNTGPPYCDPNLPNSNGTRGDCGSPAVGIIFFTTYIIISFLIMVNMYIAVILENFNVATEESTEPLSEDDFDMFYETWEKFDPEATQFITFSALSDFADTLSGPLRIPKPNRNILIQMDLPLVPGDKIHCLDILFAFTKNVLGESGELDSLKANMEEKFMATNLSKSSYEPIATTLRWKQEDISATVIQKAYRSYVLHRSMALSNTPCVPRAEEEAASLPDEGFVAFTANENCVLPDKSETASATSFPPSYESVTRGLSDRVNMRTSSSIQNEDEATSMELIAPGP
Assay type: cell-based
Source text: The ability of the benzimidazole derivatives of the formula (I) to inhibit the Nav1.8 channel may be measured using the assay described below.
HEK cells stably transfected with hNav1.8, purchased from Millipore (Millipore Corp., Billerica, Mass. 01821), were maintained according to manufacturer's instructions. For electrophysiological studies, cells were removed from the culture flask by brief trypsinization and re-plated at low density onto glass cover slips. Cells were typically used for electrophysiological experiments within 24 to 72 h after plating.
Cover slips containing HEK cells expressing hNav1.8 were placed in a bath on the stage of an inverted microscope and perfused (approximately 1 ml/min) with extracellular solution of the following composition: 138 mM NaCl, 2 mM CaCl2, 5.4 mM KCl, 1 mM MgCl2, 10 mM glucose, and 10 mM HEPES, pH 7.4, with NaOH. […] The osmolarity of the extracellular and intracellular solutions was 300 mOsm/kg and 295 mOsm/kg, respectively. All recordings were made at room temperature (22-24° C.) using AXOPATCH 200B amplifiers and PCLAMP software (Axon Instruments, Burlingame, Calif.).
hNav1.8 currents in HEK cells were measured using the whole-cell configuration of the patch-clamp technique (Hamill et al., 1981). Uncompensated series resistance was typically 2 to 5 mega ohms and >85% series resistance compensation was routinely achieved. As a result, voltage errors were negligible and no correction was applied. Current records were acquired at 20 to 50 KHz and filtered at 5 to 10 KHz.
HEK cells stably transfected with hNav1.8 were viewed under Hoffman contrast optics and placed in front of an array of flow pipes emitting either control or compound-containing extracellular solutions. All compounds were dissolved in dimethyl sulfoxide to make 10 mM stock solutions, which were then diluted into extracellular solution to attain the final concentrations desired.
The voltage-dependence of inactivation was determined by applying a series of depolarizing prepulses (8 sec long in 10 mV increments) from a negative holding potential. The voltage was then immediately stepped to 0 mV to assess the magnitude of the sodium current. Currents elicited at 0 mV were plotted as a function of prepulse potential to allow estimation of the voltage at which 50% of the channels were inactivated (midpoint of inactivation or V1/2). Compounds were tested for their ability to inhibit hNav1.8 sodium channels by activating the channel with a 20 msec voltage step to 0 mV following an 8 second conditioning prepulse to the empirically determined V1/2. Compound effect (% inhibition) was determined by difference in current amplitude before and after application of test compounds. For ease of comparison, “estimated IC50” values were calculated from single point electrophysiology data by the following equation, (tested concentration, uM)×(100-% inhibition/% inhibition). Inhibition values<20% and >80% were excluded from the calculation.
In some cases electrophysiological assays were conducted with PatchXpress 7000 hardware and associated software (Molecular Devices Corp). All assay buffers and solutions were identical to those used in conventional whole-cell voltage clamp experiments described above. hNav1.8 cells were grown as above to 50%-80% confluency and harvested by trypsinization. Trypsinized cells were washed and resuspended in extracellular buffer at a concentration of 1×10^6 cells/ml. The onboard liquid handling facility of the PatchXpress was used for dispensing cells and application of test compounds. Determination of the voltage midpoint of inactivation was as described for conventional whole-cell recordings. Cells were then voltage-clamped to the empirically determined V1/2 and current was activated by a 20 msec voltage step to 0 mV.
Estimated IC50 values for the compounds of formula (I) exemplified above are as follows. […]

| Structure (SMILES) | IC50 [nM] |
| --- | --- |
| N#Cc1ccc(-c2ccc3[nH]c([C@H](N)c4ccccc4)nc3c2)cc1 [Example 36, 4-{2-[(R)-Amino(phenyl)methyl]-1H-benzimidazol-5-yl}benzonitrile] | 227 |
| CCC(C)(C)c1ccc2[nH]c([C@H]3NCC[C@@H]3O)nc2c1 [Example 37, (2R,3S)-2-[5-(2-Methylbutan-2-yl)-1H-benzimidazol-2-yl]pyrrolidin-3-ol] | 650 |
| CCC(C)(C)c1ccc2[nH]c([C@@H](N)[C@@H](C)OC)nc2c1 [Example 38, (1R,2R)-2-Methoxy-1-[5-(2-methylbutan-2-yl)-1H-benzimidazol-2-yl]propan-1-amine] | 41.9 |
| CCC(C)(C)c1ccc2[nH]c([C@@H](N)[C@@H](C)O)nc2c1 [Example 39, (1R,2R)-1-Amino-1-[5-(2-methylbutan-2-yl)-1H-benzimidazol-2-yl]propan-2-ol] | 54.2 |
| C[C@@H](O)[C@H](N)c1nc2cc(-c3ccc(C#N)cc3)ccc2[nH]1 [Example 40, 4-{2-[(1R,2R)-1-Amino-2-hydroxypropyl]-1H-benzimidazol-5-yl}benzonitrile] | 77.1 |
| CCC(C)(C)c1ccc2[nH]c([C@@H](C)N)nc2c1 [Example 41, (1R)-1-[5-(2-Methylbutan-2-yl)-1H-benzimidazol-2-yl]ethanamine] | 648 |
| N#Cc1ccc(-c2ccc3[nH]c([C@@H](N)c4ccccc4)nc3c2)cc1 [Example 42, 4-{2-[(S)-Amino(phenyl)methyl]-1H-benzimidazol-5-yl}benzonitrile] | 122 |
| N#Cc1ccc(-c2ccc3[nH]c([C@H]4C[C@@H](O)CN4)nc3c2)cc1 [Example 43, 4-{2-[(2R,4R)-4-Hydroxypyrrolidin-2-yl]-1H-benzimidazol-5-yl}benzonitrile] | 842 |
| N#Cc1ccc(-c2ccc3[nH]c([C@H](N)CC(N)=O)nc3c2)cc1 [Example 44, (3R)-3-Amino-3-[5-(4-cyanophenyl)-1H-benzimidazol-2-yl]propanamide] | 890 |
| N#Cc1ccc(-c2ccc3[nH]c([C@@H](N)CC(N)=O)nc3c2)cc1 [Example 45, (3S)-3-Amino-3-[5-(4-cyanophenyl)-1H-benzimidazol-2-yl]propanamide] | 203 |
| CC(C)C[C@@H](N)c1nc2cc(-c3ccc(C#N)cc3)ccc2[nH]1 [Example 47, 4-{2-[(1R)-1-Amino-3-methylbutyl]-1H-benzimidazol-5-yl}benzonitrile] | 781 |
| CC(C)(C)[C@@H](N)c1nc2cc(-c3ccc(C#N)cc3)ccc2[nH]1 [Example 48, 4-{2-[(1R)-1-Amino-2,2-dimethylpropyl]-1H-benzimidazol-5-yl}benzonitrile] | 469 |
| N#Cc1ccc(-c2ccc3[nH]c([C@@H]4C[C@H](O)CN4)nc3c2)cc1 [Example 49, 4-{2-[(2S,4S)-4-Hydroxypyrrolidin-2-yl]-1H-benzimidazol-5-yl}benzonitrile] | 1050 |
| N#Cc1ccc(-c2ccc3[nH]c([C@H]4NCC[C@@H]4O)nc3c2)cc1 [Example 50, 4-{2-[(2R,3S)-3-Hydroxypyrrolidin-2-yl]-1H-benzimidazol-5-yl}benzonitrile] | 1840 |
| N#Cc1ccc(-c2ccc3[nH]c([C@@H]4CCCCN4)nc3c2)cc1 [Example 51, 4-{2-[(2S)-Piperidin-2-yl]-1H-benzimidazol-5-yl}benzonitrile] | 3130 |
| CC(C)[C@H](N)c1nc2cc(-c3ccc(C#N)cc3)ccc2[nH]1 [Example 52, 4-{2-[(1S)-1-amino-2-methylpropyl]-1H-benzimidazol-5-yl}benzonitrile] | 703 |
| CC[C@@H](N)c1nc2cc(-c3ccc(C#N)cc3)ccc2[nH]1 [Example 53, 4-{2-[(1R)-1-aminopropyl]-1H-benzimidazol-5-yl}benzonitrile] | 562 |
| C[C@@H](N)c1nc2cc(-c3ccc(C#N)cc3)ccc2[nH]1 [Example 54, 4-{2-[(1R)-1-aminoethyl]-1H-benzimidazol-5-yl}benzonitrile] | 662 |

| Structure (SMILES) | IC50 [nM] |
| --- | --- |
| CC1(C)[C@@H]2[C@@H](c3nc4cc(-c5ccc(C#N)cc5)ccc4[nH]3)NC[C@@H]21 [Example 55, 4-{2-[(1R,2S,5S)-6,6-dimethyl-3-azabicyclo[3.1.0]hex-2-yl]-1H-benzimidazol-5-yl}benzonitrile] | 77.4 |
| CC(C)[C@@H](N)c1nc2cc(-c3ccc(C#N)cc3)ccc2[nH]1 [Example 56, 4-{2-[(1R)-1-amino-2-methylpropyl]-1H-benzimidazol-5-yl}benzonitrile] | 97.5 |
| CC(C)(C)[C@H](N)c1nc2cc(-c3ccc(C#N)cc3)ccc2[nH]1 [Example 57, 4-{2-[(1S)-1-amino-2,2-dimethylpropyl]-1H-benzimidazol-5-yl}benzonitrile] | 2530 |
| CCCC[C@@H](N)c1nc2cc(-c3ccc(C#N)cc3)ccc2[nH]1 [Example 58, 4-{2-[(1R)-1-aminopentyl]-1H-benzimidazol-5-yl}benzonitrile] | 537 |
| N#Cc1ccc(-c2ccc3[nH]c(C4(N)CCCC4)nc3c2)cc1 [Example 59, 4-[2-(1-aminocyclopentyl)-1H-benzimidazol-5-yl]benzonitrile] | 105 |
| CCCC[C@H](N)c1nc2cc(-c3ccc(C#N)cc3)ccc2[nH]1 [Example 60, 4-{2-[(1S)-1-aminopentyl]-1H-benzimidazol-5-yl}benzonitrile] | 166 |
| N#Cc1ccc(-c2ccc3[nH]c([C@@H]4C[C@H](F)CN4)nc3c2)cc1 [Example 61, 4-{2-[(2S,4S)-4-fluoropyrrolidin-2-yl]-1H-benzimidazol-5-yl}benzonitrile] | 698 |
| C[C@H](O)[C@@H](N)c1nc2cc(-c3ccc(C#N)cc3)ccc2[nH]1 [Example 62, 4-{2-[(1S,25)-1-amino-2-hydroxypropyl]-1H-benzimidazol-5-yl}benzonitrile] | 580 |
| C[C@H](N)c1nc2cc(-c3ccc(C#N)cc3)ccc2[nH]1 [Example 64, 4-{2-[(1S)-1-aminoethyl]-1H-benzimidazol-5-yl}benzonitrile] | 1000 |
| CCCCc1ccc2[nH]c(C(C)(C)N)nc2c1 [Example 65, 2-(5-Butyl-1H-benzimidazol-2-yl)propan-2-amine] | 2710 |
| CC(C)(N)c1nc2cc(C3CCCCC3)ccc2[nH]1 [Example 66, 2-(5-Cyclohexyl-1H-benzimidazol-2-yl)propan-2-amine] | 1000 |
| CCC(C)(C)c1ccc2[nH]c(C(C)(C)N)nc2c1 [Example 68, 2-[5-(2-Methylbutan-2-yl)-1H-benzimidazol-2-yl]propan-2-amine] | 635 |
| CCCc1ccc2[nH]c(C(C)(C)N)nc2c1 [Example 69, 2-(5-Propyl-1H-benzimidazol-2-yl)propan-2-amine] | 3900 |
| CC(C)(N)c1nc2cc(-c3cc(F)cc(C#N)c3)ccc2[nH]1 [Example 70, 3-[2-(1-Amino-1-methylethyl)-1H-benzimidazol-5-yl]-5-fluorobenzonitrile] | 3160 |
| CC(C)(N)c1nc2cc(-c3ccc(Cl)c(C#N)c3)ccc2[nH]1 [Example 71, 5-[2-(1-Amino-1-methylethyl)-1H-benzimidazol-5-yl]-2-chlorobenzonitrile] | 3930 |
| CC(C)(N)c1nc2cc(-c3cccc(C#N)c3)ccc2[nH]1 [Example 72, 3-[2-(1-Amino-1-methylethyl)-1H-benzimidazol-5-yl]benzonitrile] | 2490 |
| CC(C)(N)c1nc2cc(-c3cccc(Cl)c3C#N)ccc2[nH]1 [Example 73, 2-[2-(1-Amino-1-methylethyl)-1H-benzimidazol-5-yl]-6-chlorobenzonitrile] | 827 |
| CC(C)(N)c1nc2cc(-c3ccccc3C#N)ccc2[nH]1 [Example 74, 2-[2-(1-Amino-1-methylethyl)-1H-benzimidazol-5-yl]benzonitrile] | 1360 |
